Consider 11 molecules from US20090239840A1, “AMINO SUBSTITUTED DIARYL[a,d]CYCLOHEPTENE ANALOGS AS [sequence] AGONISTS AND METHODS OF TREATMENT OF NEUROPSYCHIATRIC DISORDERS” (ACADIA PHARMACEUTICALS, INC., priority 2003, published 2009).

In one series the target is T1, muscarinic M2 receptor (Homo sapiens, UniProt P08172).
T1 construct: expressed in transfected cells
T1 sequence (P08172 1-466): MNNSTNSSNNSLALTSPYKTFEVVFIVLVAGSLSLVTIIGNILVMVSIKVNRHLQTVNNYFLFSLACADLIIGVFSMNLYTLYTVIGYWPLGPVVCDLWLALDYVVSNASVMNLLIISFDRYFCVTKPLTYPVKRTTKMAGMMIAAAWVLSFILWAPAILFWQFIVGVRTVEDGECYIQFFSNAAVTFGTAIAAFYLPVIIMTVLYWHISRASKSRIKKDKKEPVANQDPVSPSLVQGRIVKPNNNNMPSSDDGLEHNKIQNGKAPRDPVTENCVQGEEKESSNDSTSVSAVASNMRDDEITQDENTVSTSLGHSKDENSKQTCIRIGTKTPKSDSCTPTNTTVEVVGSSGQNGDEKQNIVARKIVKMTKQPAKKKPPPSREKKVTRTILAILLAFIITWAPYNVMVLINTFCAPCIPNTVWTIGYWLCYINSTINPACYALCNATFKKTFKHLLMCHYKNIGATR
The series is described as follows: R-SAT functional screen, M2. Format: cell-based. Particulars: R-SAT; for Emax: read-out: M2 eff (efficacy); for EC50: read-out: M2 pEC50 (converted). In outline:
(§1)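 Receptor Selection and Amplification Technology (R-SAT) functional cell assay at M1, M2, M3 receptors. Values reported as efficacy (eff) and potency as pEC50.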

For the next series, the target named is T2, muscarinic M1 receptor (Homo sapiens, UniProt P11229).
T2 construct: expressed in transfected cells
T2 sequence (P11229 1-460): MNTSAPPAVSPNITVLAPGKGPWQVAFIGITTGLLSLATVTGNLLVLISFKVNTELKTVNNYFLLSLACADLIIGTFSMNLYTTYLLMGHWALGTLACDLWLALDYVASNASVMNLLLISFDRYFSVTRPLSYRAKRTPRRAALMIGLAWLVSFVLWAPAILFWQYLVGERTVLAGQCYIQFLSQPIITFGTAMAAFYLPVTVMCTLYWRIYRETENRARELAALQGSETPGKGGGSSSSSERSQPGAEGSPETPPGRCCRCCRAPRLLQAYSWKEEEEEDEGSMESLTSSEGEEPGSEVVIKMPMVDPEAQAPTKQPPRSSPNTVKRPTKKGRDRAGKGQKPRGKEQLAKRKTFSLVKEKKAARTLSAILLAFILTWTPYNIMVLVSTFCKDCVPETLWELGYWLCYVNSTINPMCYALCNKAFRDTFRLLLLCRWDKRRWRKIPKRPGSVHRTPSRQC
The series can be described thus: R-SAT functional screen, M1. Particulars: R-SAT; for Emax: read-out: M1 eff (efficacy); for EC50: read-out: M1 pEC50 (converted). The class given is cell-based. A digest of the protocol: as §1

For the next series, the target named is T3, muscarinic M3 receptor (Homo sapiens, UniProt P20309).
T3 construct: expressed in transfected cells
The series can be described thus: R-SAT functional screen, M3. The class given is cell-based. From the text: The term “modulate” refers to the ability of a compound disclosed herein to alter the function of a muscarinic receptor. A modulator may activate the activity of a muscarinic receptor, may activate or inhibit the activity of a muscarinic receptor depending on the concentration of the compound exposed to the muscarinic receptor, or may inhibit the activity of a muscarinic receptor. The term “modulate” also refers to altering the function of a muscarinic receptor by increasing or decreasing the probability that a complex forms between a muscarinic receptor and a natural binding partner. A modulator may increase the probability that such a complex forms between the muscarinic receptor and the natural binding partner, may increase or decrease the probability that a complex forms between the muscarinic receptor and the natural binding partner depending on the concentration of the compound exposed to the muscarinic receptor, and or may decrease the probability that a complex forms between the muscarinic receptor and the natural binding partner. In some embodiments, modulation of the muscarinic receptor may be assessed using Receptor Selection and Amplification Technology (R-SAT) as described in U.S. Pat. No. 5,707,798, the disclosure of which is incorporated herein by reference in its entirety.
Several compounds disclosed herein were evaluated for activity at muscarinic receptors using Receptor Selection and Amplification Technology (R-SAT) as described in U.S. Pat. No. 5,707,798, the disclosure of which is incorporated herein by reference in its entirety. The efficacy (eff) and potency (expressed as pEC50) of these compounds are presented in Table 1 at M1, M2, and M3 receptors.

A further series deals with T4, M1 receptor (Homo sapiens, UniProt P11229).
T4 sequence (P11229 1-460): T2 sequence (P11229 1-460)
The series can be described thus: Receptor profile, M1 agonist activity. Particulars: for Emax: read-out: M1 intrinsic activity %.

The target in another series is D2 receptor (Homo sapiens, UniProt P14416). The series can be described thus: Receptor profile, D2 agonist activity. Particulars: for Emax: read-out: D2 intrinsic activity %.
The next series concerns the target 5-HT2A receptor (Homo sapiens, UniProt P28223). The series can be described thus: Receptor profile, 5-HT2A inverse agonism. Format: cell-based. The conditions noted are these: negative log of the inhibitory IC50 (inverse agonism); read-out: 5-HT2A pIEC50 (converted).
In series [1] the test system is hyperactivity induced by MK-801. The series is described as follows: MK-801 induced hyperactivity mouse model. Format: in vivo. Particulars: mice, salts of the compounds. The protocol:
(§2) Five of the compounds listed in Table 2 were tested in an in vivo assay predictive of antipsychotic activity. Salts of these compounds where administered to mice having hyperactivity induced by amphetamine or MK-801 administration. The compounds were administered both subcutaneously (sc) and orally (po).

The test system of a further series is novel object recognition. The series is described as follows: Novel object recognition (NOR) assay. Format: in vivo. The conditions noted are these: mice; for NOR - 60 minutes post training / NOR - 120 minutes post training: dose approx. ID75 in MK-801 hyperactivity assay. The protocol:
Salts of the compounds were administered to mice at one hour post-training (a time-point at which animals normally behaviorally discriminate between novel and familiar objects) and two hours post-training (a time-point at which these animals normally no longer discriminate between objects). Doses were selected to correspond to the approximate ID75 value in the MK-801 hyperactivity assay.

For series [2], the system named is hyperactivity induced by amphetamine. The series can be described thus: Amphetamine induced hyperactivity mouse model. The conditions noted are these: mice, salts of the compounds. Format: in vivo. The protocol:
as §2

A short description of a further series: Ames mutagenesis assay. The class given is cell-based.

Chain of 5-HT2A receptor (P28223 whole entry): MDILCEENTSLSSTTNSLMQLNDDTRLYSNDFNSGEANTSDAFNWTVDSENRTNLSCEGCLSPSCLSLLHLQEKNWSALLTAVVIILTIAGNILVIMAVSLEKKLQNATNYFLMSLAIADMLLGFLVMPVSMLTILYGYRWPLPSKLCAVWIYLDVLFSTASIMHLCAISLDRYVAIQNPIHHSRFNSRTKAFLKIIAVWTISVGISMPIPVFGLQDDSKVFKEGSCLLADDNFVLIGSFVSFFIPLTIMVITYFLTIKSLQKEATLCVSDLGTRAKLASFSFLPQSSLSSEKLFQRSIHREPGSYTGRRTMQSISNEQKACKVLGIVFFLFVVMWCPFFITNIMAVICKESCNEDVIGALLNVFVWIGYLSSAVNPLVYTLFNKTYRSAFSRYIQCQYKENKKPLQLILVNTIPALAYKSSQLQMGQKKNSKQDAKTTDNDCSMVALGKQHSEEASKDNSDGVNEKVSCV
T3 sequence (P20309 whole entry): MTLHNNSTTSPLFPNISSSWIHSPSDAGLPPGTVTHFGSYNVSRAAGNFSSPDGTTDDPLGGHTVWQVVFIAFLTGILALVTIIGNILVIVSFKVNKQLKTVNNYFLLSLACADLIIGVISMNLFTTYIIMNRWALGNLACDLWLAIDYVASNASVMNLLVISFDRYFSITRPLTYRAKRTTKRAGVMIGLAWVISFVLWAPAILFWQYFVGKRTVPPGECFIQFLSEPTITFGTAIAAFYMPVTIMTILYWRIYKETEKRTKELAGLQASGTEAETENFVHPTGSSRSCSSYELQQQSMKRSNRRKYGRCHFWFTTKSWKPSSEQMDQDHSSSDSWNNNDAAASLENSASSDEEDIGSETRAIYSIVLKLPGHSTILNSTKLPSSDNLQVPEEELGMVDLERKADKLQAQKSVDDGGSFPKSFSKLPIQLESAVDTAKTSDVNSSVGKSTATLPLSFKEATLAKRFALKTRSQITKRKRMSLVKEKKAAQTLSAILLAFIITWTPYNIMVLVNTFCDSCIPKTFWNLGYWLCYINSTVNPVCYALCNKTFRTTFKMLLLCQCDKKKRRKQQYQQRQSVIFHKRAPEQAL
Chain of D2 receptor (P14416 whole entry): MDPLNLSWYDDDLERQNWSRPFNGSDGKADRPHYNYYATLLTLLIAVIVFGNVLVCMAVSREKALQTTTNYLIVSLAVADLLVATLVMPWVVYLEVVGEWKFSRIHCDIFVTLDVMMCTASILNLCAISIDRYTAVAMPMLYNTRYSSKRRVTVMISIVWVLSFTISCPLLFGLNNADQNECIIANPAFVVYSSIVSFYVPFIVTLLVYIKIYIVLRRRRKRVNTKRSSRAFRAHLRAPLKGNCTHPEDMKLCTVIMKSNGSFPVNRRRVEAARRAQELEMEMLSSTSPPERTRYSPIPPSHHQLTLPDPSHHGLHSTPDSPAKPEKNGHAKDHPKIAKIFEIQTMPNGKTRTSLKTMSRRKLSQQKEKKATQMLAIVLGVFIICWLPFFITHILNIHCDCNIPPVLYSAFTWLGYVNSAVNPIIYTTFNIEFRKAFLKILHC

In the case of `Clc1ccc2c(c1)N=C(N1CCNCC1)c1cccc(Cl)c1N2` [4,8-Dichloro-11-(piperazin-1-yl)-5H-dibenzo[b,e][1,4]diazepine], the Emax on muscarinic M2 receptor was found to be 118%; on muscarinic M1 receptor, 78%. In addition, the EC50 at muscarinic M2 receptor was 1000 nM; at muscarinic M1 receptor it was 63.1 nM; on muscarinic M3 receptor (read-out: M3 pEC50 (converted)), 158 nM. The “M3 eff (efficacy)” value on muscarinic M3 receptor worked out at 44.
On to `Cc1cccc2c1Oc1ccc(C(F)(F)F)cc1N=C2N1CCNCC1` [4-Methyl-11-(piperazin-1-yl)-8-trifluoromethyl-dibenzo[b,f][1,4]oxazepine], for which the results for the Emax on muscarinic M2 receptor and on M1 receptor were 75% and 52%, respectively. The results for the EC50 at muscarinic M2 receptor and on M1 receptor were 794 nM and 316 nM, respectively. Moreover, the “D2 intrinsic activity, in words” value at D2 receptor (devoid of agonist activity) is “antagonist”. Also, at 5-HT2A receptor, the IC50 was 2510 nM. Further, the “MK-801 model (ID50 mg/kg sc)” value in series [1] is more than 10 mg/kg.
On to `Clc1cccc2c1C(N1CCNCC1)=Nc1cc(Br)ccc1N2` [8-Bromo-1-chloro-11-(piperazin-1-yl)-5H-dibenzo[b,e][1,4]diazepine], for which, on muscarinic M2 receptor, the Emax came out at 105% and the EC50 was 2510 nM. At muscarinic M1 receptor, the Emax came to 66% and the EC50 is 126 nM. Moreover, the “M3 eff (efficacy)” value on muscarinic M3 receptor is listed as 4.
With `Brc1ccc2c(c1)N=C(N1CCNCC1)c1ccccc1N2` [8-Bromo-11-(piperazin-1-yl)-5H-dibenzo[b,e][1,4]diazepine], on muscarinic M2 receptor, the Emax turned out to be 121% and the EC50 was 501 nM. For the same molecule, on muscarinic M1 receptor, the Emax is 63% and the EC50 was 63.1 nM. Further, the “M3 eff (efficacy)” value at muscarinic M3 receptor is 13.
For the molecule `Brc1ccc2c(c1)N=C(N1CCNCC1)c1ccccc1O2` [8-Bromo-11-(piperazin-1-yl)-dibenzo[b,f][1,4]oxazepine], the Emax at muscarinic M2 receptor amounted to 70%; on M1 receptor, 36%; at D2 receptor it was 34%. Moreover, the EC50 at muscarinic M2 receptor was 1260 nM; at M1 receptor it was 398 nM; at D2 receptor it was 50.1 nM. In addition, the IC50 on 5-HT2A receptor was 25.1 nM.
`Cc1cccc2c1Nc1ccc(Cl)cc1N=C2N1CCNCC1` [8-Chloro-4-methyl-11-(piperazin-1-yl)-5H-dibenzo[b,e][1,4]diazepine]: at muscarinic M2 receptor, the Emax amounted to 162% and the EC50 is 1000 nM. In addition, at muscarinic M1 receptor, the Emax is 92% and the EC50 was 63.1 nM. Moreover, the “M3 eff (efficacy)” value at muscarinic M3 receptor was found to be 16.
Taken in the same sequence, the figures for `CC1CN(C2=Nc3cc(Cl)ccc3Nc3ccccc32)CCN1` (centres unmarked) [8-Chloro-11-(3-methyl-piperazin-1-yl)-5H-dibenzo[b,e][1,4]diazepine] were 159%, 1580 nM, 28%, 100 nM and 19.
Consider `Fc1ccc2c(c1)N=C(N1CCNCC1)c1ccccc1O2` [8-Fluoro-11-(piperazin-1-yl)-dibenzo[b,f][1,4]oxazepine], for which the Emax was 48% at muscarinic M2 receptor, 39% on M1 receptor and 73% on D2 receptor. Also, the EC50 on muscarinic M2 receptor was 2510 nM; on M1 receptor, 316 nM; at D2 receptor, 15.8 nM. At 5-HT2A receptor, the IC50 is 501 nM.
With `CN1CCN(C2=Nc3cc(Cl)ccc3Nc3ccccc32)CC1` [Clozapine, clozapine, reference compound], in the series with novel object recognition, the “NOR - 60 minutes post training” value was “not retained” and the “NOR - 120 minutes post training” value is recorded as “not retained”. Further, in the series with novel object recognition (listed as clozapine), the “NOR - 60 minutes post training” value was “abolished novel object recognition” and the “NOR - 120 minutes post training” value is “cognitive impairing effects”. In addition, in series [2], the “Amphetamine model (ID50 mg/kg po)” value came out at 10 mg/kg and the “Amphetamine model (ID50 mg/kg sc)” value was determined as 1.4 mg/kg. Also, in series [1], the “MK-801 model (ID50 mg/kg po)” value was found to be 0.6 mg/kg and the “MK-801 model (ID50 mg/kg sc)” value was 0.5 mg/kg.
`Clc1ccc2c(c1)N=C(N1CCNCC1)c1ccccc1N2` [N-desmethylclozapine, reference compound]: in the series with novel object recognition, the “NOR Interpretation” value is “no effect”, the “NOR - 60 minutes post training” value was “retained” and the “NOR - 120 minutes post training” value is recorded as “not retained”. Also, in series [2], the “Amphetamine model (ID50 mg/kg po)” value is given as more than 10 mg/kg and the “Amphetamine model (ID50 mg/kg sc)” value came to 5.2 mg/kg. In series [1], the “MK-801 model (ID50 mg/kg po)” value was determined as 1.5 mg/kg and the “MK-801 model (ID50 mg/kg sc)” value was found to be 3.5 mg/kg. Moreover, the Ames result in the series “Ames mutagenesis assay” is given as “Neg”.
Consider `CN(C)CCNC1=Nc2cc(F)ccc2Nc2ccccc21` [N′-(8-Fluoro-5H-dibenzo[b,e][1,4]diazepine-11-yl)-N,N-dimethyl-ethane-1,2-diamine], for which the results for the Emax at muscarinic M2 receptor and at muscarinic M1 receptor were 21% and 7%, respectively.
